Assay results from the NIST ThermoML archive (doi:10.1016/j.fluid.2013.06.021).
Numbers after ± are expanded uncertainties.

Details: 298.15 K, 101.33 kPa, Liquid; for viscosity: Capillary tube (Ostwald / Ubbelohde) method; for speed of sound: Sing-around technique in a fixed-path interferometer; for mass density: Vibrating tube method

CCCO [propan-1-ol] showed a viscosity of 1.984 ± 0.12 mPa·s, a speed of sound of 1207 ± 0.8 m/s and a mass density of 800.13 ± 0.14 kg/m3.

For CCC(C)O (stereo not given) [butan-2-ol], the viscosity was 3.075 ± 0.12 mPa·s, the speed of sound was 1213.3 ± 0.81 m/s and the mass density was 802.563 ± 0.14 kg/m3.

With CC(C)O [propan-2-ol] the viscosity was 2.111 ± 0.12 mPa·s, the speed of sound was 1140.6 ± 0.64 m/s and the mass density was 781.588 ± 0.12 kg/m3.

Compound CCCCO [butan-1-ol] has a viscosity of 2.625 ± 0.12 mPa·s, a speed of sound of 1240.6 ± 0.71 m/s and a mass density of 805.986 ± 0.12 kg/m3.

For CCCCOCCO [2-butoxyethan-1-ol], the viscosity was 2.885 ± 0.12 mPa·s, the speed of sound was 1306 ± 0.7 m/s and the mass density was 896.312 ± 0.083 kg/m3.
